Experimental data: article PMC12682947, “Identification of New KCNT1‐Epilepsy Drugs by In Silico, Cell, and Drosophila Modeling” (Annals of Neurology, 2025)
Structures can show the parent of a compound that is named as a salt.

What was measured:
Format in all cases: in vivo, Drosophila melanogaster
Conditions in all cases: drug in food
[1] = test system: Drosophila KCNT1 mutant line G288S; assay: Bang-sensitive behavioral seizure assay, Drosophila KCNT1 mutant line G288S
Excerpt: (§1) The Drosophila melanogaster lines carrying the WT human KCNT1 transgene (NM_020822_3) or KCNT1 mutant G288S, R398Q or R928C transgene placed downstream of the yeast UAS promoter, have been described previously.[11] WT or mutant human UAS‐KCNT1 flies were crossed to flies expressing the GAL4 transcriptional activator under the control of the GAD1 promoter (GABAergic driver, Bloomington stock number 51630 P2) to drive expression of KCNT1 in GABAergic neurons, involved in neuronal inhibition.[11]
(§2) The bang‐sensitive behavioral assay (also known as the banging assay) was used to test for the presence of a seizure phenotype in Drosophila.[11], [30] Experiments were performed and scored, as previously described,[11] with a minimum of 50 Drosophila tested for each genotype and drug concentration.
(§3) Four drugs were selected for in vivo analysis to determine their effects on the seizure phenotypes in transgenic Drosophila lines with human mutant KCNT1 channels. […]
(§4) In all experiments, experimenters were not blinded to variants or treatments, nor were samples randomly assigned to groups. Sample sizes were not calculated in advance and no data were excluded from the analysis. Data were analyzed using GraphPad Prism 9 software (San Diego, CA, USA). […] All data passed normality and lognormality Shapiro–Wilk tests, determined by GraphPad Prism 9. […]

[2] = test system: Drosophila KCNT1 mutant line R398Q; assay: Bang-sensitive behavioral seizure assay, Drosophila KCNT1 mutant line R398Q
Excerpt: as §1, §2, §3, §4

[3] = test system: Drosophila KCNT1 mutant line R928C; assay: Bang-sensitive behavioral seizure assay, Drosophila KCNT1 mutant line R928C
Excerpt: as §1, §2, §3, §4

SMILES | reduction of the seizure phenotype [1] | reduction of the seizure phenotype [2] | reduction of the seizure phenotype [3]
O=C(OCCN1CCN(c2cccc(C(F)(F)F)c2)CC1)c1ccccc1Nc1ccnc2cc(C(F)(F)F)ccc12 [antrafenine] | at least 50% | at least 50% | 25%
Cc1c(O)cccc1C(=O)N[C@@H](CSc1ccccc1)[C@H](O)CN1C[C@H]2CCCC[C@H]2C[C@H]1C(=O)NC(C)(C)C [nelfinavir mesylate] | 50% | 50% | 50%
